# Measurements as given in US8022091B2, “Triazole derivative” (Taisho Pharmaceutical Co., Ltd., priority 2006, dated 2011).
# Biological target: T1, human Edg-1 (S1P1) (Homo sapiens, UniProt P21453)
# T1 construct: expressed in transfected cells; host or cells: HEK-293
# Assay: S1P1 binding assay: inhibition of [33P]-S1P binding to membrane fraction of HEK-293 cells transferred with the human Edg-1 (S1P1) gene
# Conditions: test compound 10 μM; inhibition of [33P]-S1P binding, membrane fraction
# In short: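 Membranes from S1P1-transfected HEK-293 cells incubated 1 h at 30° C in pH 7.4 Tris buffer with fatty acid-free BSA, 0.1 nM [33P]-S1P and test compound (0.1% DMSO). Filter-bound radioactivity was counted; inhibition corrected for binding to untransfected-cell membranes, and IC50 derived from concentration series.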
# T1 sequence (P21453 whole entry): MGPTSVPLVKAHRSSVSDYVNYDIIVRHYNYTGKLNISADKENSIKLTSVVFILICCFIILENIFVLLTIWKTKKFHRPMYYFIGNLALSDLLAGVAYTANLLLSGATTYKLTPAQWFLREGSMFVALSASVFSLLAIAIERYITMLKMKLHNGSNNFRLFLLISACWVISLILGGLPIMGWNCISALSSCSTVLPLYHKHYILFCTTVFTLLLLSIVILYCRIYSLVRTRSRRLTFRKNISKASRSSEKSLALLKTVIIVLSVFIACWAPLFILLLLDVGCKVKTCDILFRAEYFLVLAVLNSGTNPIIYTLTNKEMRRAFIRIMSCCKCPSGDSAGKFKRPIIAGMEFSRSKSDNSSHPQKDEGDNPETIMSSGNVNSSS
row,inhibition at 10 µM,SMILES
1,102%,CCn1c(Oc2cccc(N3CCN(C)CC3)c2)nnc1[C@@H](C)NS(=O)(=O)c1cccc(Cl)c1C [Compound 555]
2,105%,CCn1c(Oc2cccc(N3CCN(C)CC3)c2)nnc1[C@@H](C)NS(=O)(=O)c1cccc(OC)c1 [Compound 556]
3,107%,CCn1c(Oc2cccc(N3CCN(C)CC3)c2)nnc1[C@@H](C)NS(=O)(=O)c1cc(F)c(Br)cc1F [Compound 557]
4,64.8%,CCn1c(Oc2cccc(N3CCN(C)CC3)c2)nnc1[C@@H](C)NS(=O)(=O)c1c(C)cc(OC)c(C)c1C [Compound 558]
5,79.3%,CCn1c(Oc2cccc(N3CCN(C)CC3)c2)nnc1[C@@H](C)NS(=O)(=O)c1cc(Br)ccc1OC [Compound 559]
6,74.4%,CCn1c(Oc2cccc(N3CCN(C)CC3)c2)nnc1[C@@H](C)NS(=O)(=O)c1cc(F)ccc1C [Compound 560]
7,92.4%,CCn1c(Oc2cccc(N3CCN(C)CC3)c2)nnc1[C@@H](C)NS(=O)(=O)c1c(C)c(C)c(C)c(C)c1C [Compound 561]
8,93.3%,CCn1c(Oc2cccc(N3CCN(C)CC3)c2)nnc1[C@@H](C)NS(=O)(=O)c1cc(C)ccc1OC [Compound 562]
9,64.1%,CCn1c(Oc2cccc(N3CCN(C)CC3)c2)nnc1[C@@H](C)NS(=O)(=O)c1ccccc1OC(F)(F)F [Compound 563]
10,105%,CCn1c(Oc2cccc(N3CCN(C)CC3)c2)nnc1[C@@H](C)NS(=O)(=O)c1ccc(C#N)cc1 [Compound 564]
11,88.7%,CCn1c(Oc2cccc(N3CCN(C)CC3)c2)nnc1[C@@H](C)NS(=O)(=O)c1c(Cl)cc(Cl)cc1Cl [Compound 566]
12,102%,CCn1c(Oc2cccc(N3CCN(C)CC3)c2)nnc1[C@@H](C)NS(=O)(=O)c1ccc(Cl)cc1Cl [Compound 567]
13,71.1%,CCn1c(Oc2cccc(N3CCN(C)CC3)c2)nnc1[C@@H](C)NS(=O)(=O)c1ccc(F)cc1F [Compound 568]
14,75%,CCn1c(Oc2cccc(N3CCN(C)CC3)c2)nnc1[C@@H](C)NS(=O)(=O)c1cc(OC)ccc1OC [Compound 569]
15,77.4%,CCn1c(Oc2cccc(N3CCN(C)CC3)c2)nnc1[C@@H](C)NS(=O)(=O)c1ccc(F)cc1Cl [Compound 570]
16,55.7%,CCn1c(Oc2cccc(N3CCN(C)CC3)c2)nnc1[C@@H](C)NS(=O)(=O)c1ccccc1F [Compound 571]
17,96.5%,CCn1c(Oc2cccc(N3CCN(C)CC3)c2)nnc1[C@@H](C)NS(=O)(=O)c1cccc(Cl)c1 [Compound 572]
18,86.3%,CCn1c(Oc2cccc(N3CCN(C)CC3)c2)nnc1[C@@H](C)NS(=O)(=O)c1ccc(C(C)C)cc1 [Compound 573]
19,86.9%,CCc1cc(Br)ccc1S(=O)(=O)N[C@H](C)c1nnc(Oc2cccc(N3CCN(C)CC3)c2)n1CC [Compound 574]
20,104%,CCn1c(Oc2cccc(N3CCN(C)CC3)c2)nnc1[C@@H](C)NS(=O)(=O)c1ccc(Br)cc1C [Compound 575]
21,81.4%,CCn1c(Oc2cccc(N3CCN(C)CC3)c2)nnc1[C@@H](C)NS(=O)(=O)c1ccc(C#N)cc1Cl [Compound 576]
22,92.4%,CCn1c(Oc2cccc(N3CCN(C)CC3)c2)nnc1[C@@H](C)NS(=O)(=O)c1ccc(F)c(F)c1F [Compound 577]

row,inhibition at 10 µM,SMILES
1,87.6%,CCn1c(Oc2cccc(N3CCN(C)CC3)c2)nnc1[C@@H](C)NS(=O)(=O)c1c(Cl)cc(C(F)(F)F)cc1Cl [Compound 579]
2,89.2%,CCn1c(Oc2cccc(N3CCN(C)CC3)c2)nnc1[C@@H](C)NS(=O)(=O)c1cc(F)c(F)cc1Cl [Compound 580]
3,99.9%,CCn1c(Oc2cccc(N3CCN(C)CC3)c2)nnc1[C@@H](C)NS(=O)(=O)c1ccc(F)c(F)c1 [Compound 581]
4,106%,CCn1c(Oc2cccc(N3CCN(C)CC3)c2)nnc1[C@@H](C)NS(=O)(=O)c1ccc(Br)cc1F [Compound 582]
5,109%,CCn1c(Oc2cccc(N3CCN(C)CC3)c2)nnc1[C@@H](C)NS(=O)(=O)c1cc(F)c(Cl)cc1F [Compound 583]
6,87.9%,CCn1c(Oc2cccc(N3CCN(C)CC3)c2)nnc1[C@@H](C)NS(=O)(=O)Cc1ccc(Cl)c(Cl)c1 [Compound 586]
7,60%,CCn1c(Oc2cccc(N3CCN(C)CC3)c2)nnc1[C@@H](C)NS(=O)(=O)CC(c1ccccc1)c1ccccc1 [Compound 587]
8,109%,CCn1c(Oc2cccc(N3CCN(C)CC3)c2)nnc1[C@@H](C)NS(=O)(=O)c1cc(C)c(Cl)cc1Cl [Compound 588]
9,80.2%,CCn1c(Oc2cccc(N3CCN(C)CC3)c2)nnc1[C@@H](C)NS(=O)(=O)c1c(F)c(Br)cc(F)c1Br [Compound 589]
10,62.3%,CCn1c(Oc2cccc(N3CCN(C)CC3)c2)nnc1[C@@H](C)NS(=O)(=O)c1c(F)cccc1F [Compound 590]
11,77.5%,CCn1c(Oc2cccc(N3CCN(C)CC3)c2)nnc1[C@@H](C)NS(=O)(=O)c1cc(C(F)(F)F)ccc1Cl [Compound 591]
12,95.8%,CCn1c(Oc2cccc(N3CCN(C)CC3)c2)nnc1[C@@H](C)NS(=O)(=O)c1cccc(F)c1 [Compound 592]
13,65.9%,CCn1c(Oc2cccc(N3CCN(C)CC3)c2)nnc1[C@@H](C)NS(=O)(=O)c1ccc(NC(C)=O)c(Cl)c1 [Compound 593]
14,84%,CCn1c(Oc2cccc(N3CCN(C)CC3)c2)nnc1[C@@H](C)NS(=O)(=O)c1cc(Cl)ccc1OC [Compound 594]
15,93.7%,CCn1c(Oc2cccc(N3CCN(C)CC3)c2)nnc1[C@@H](C)NS(=O)(=O)c1c(C)cc(Cl)cc1Cl [Compound 595]
16,100%,CCn1c(Oc2cccc(N3CCN(C)CC3)c2)nnc1[C@@H](C)NS(=O)(=O)c1cc(F)c(F)cc1F [Compound 596]
17,97.3%,CCn1c(Oc2cccc(N3CCN(C)CC3)c2)nnc1[C@@H](C)NS(=O)(=O)c1cc(Br)ccc1Br [Compound 597]
18,89.5%,CCn1c(Oc2cccc(N3CCN(C)CC3)c2)nnc1[C@@H](C)NS(=O)(=O)c1ccc(-c2ccno2)s1 [Compound 598]
19,80.6%,CCn1c(Oc2cccc(N3CCN(C)CC3)c2)nnc1[C@@H](C)NS(=O)(=O)Cc1cccc(Cl)c1 [Compound 599]
20,100%,CCn1c(Oc2cccc(N3CCN(C)CC3)c2)nnc1[C@@H](C)NS(=O)(=O)c1ccc(Br)cc1Br [Compound 600]
21,100%,CCn1c(Oc2cccc(N3CCN(C)CC3)c2)nnc1[C@@H](C)NS(=O)(=O)c1ccc(F)c(C#N)c1 [Compound 601]
22,107%,CCn1c(Oc2cccc(N3CCN(C)CC3)c2)nnc1[C@@H](C)NS(=O)(=O)c1cc(C)cc(C)c1 [Compound 602]

row,inhibition at 10 µM,SMILES
1,107%,CCn1c(Oc2cccc(N3CCN(C)CC3)c2)nnc1[C@@H](C)NS(=O)(=O)c1ccc(OC(F)F)cc1 [Compound 603]
2,109%,CCn1c(Oc2cccc(N3CCN(C)CC3)c2)nnc1[C@@H](C)NS(=O)(=O)c1cccc(OC(F)F)c1 [Compound 604]
3,83.4%,CCn1c(Oc2cccc(N3CCN(C)CC3)c2)nnc1[C@@H](C)NS(=O)(=O)c1c(F)cc(F)cc1Br [Compound 605]
4,108%,CCn1c(Oc2cccc(N3CCN(C)CC3)c2)nnc1[C@@H](C)NS(=O)(=O)c1cc(F)cc(F)c1 [Compound 606]
5,109%,CCn1c(Oc2cccc(N3CCN(C)CC3)c2)nnc1[C@@H](C)NS(=O)(=O)c1cc(F)c(F)c(F)c1 [Compound 608]
6,93.1%,CCn1c(Oc2cccc(N3CCN(C)CC3)c2)nnc1[C@@H](C)NS(=O)(=O)c1ccc(F)cc1Br [Compound 609]
7,91.2%,CCn1c(Oc2cccc(N3CCN(C)CC3)c2)nnc1[C@@H](C)NS(=O)(=O)c1ccc(C(F)(F)F)cc1Br [Compound 610]
8,63.9%,CCn1c(Oc2cccc(N3CCN(C)CC3)c2)nnc1[C@@H](C)NS(=O)(=O)c1cc(C(F)(F)F)ccc1Br [Compound 611]
9,114%,CCn1c(Oc2cccc(N3CCN(C)CC3)c2)nnc1[C@@H](C)NS(=O)(=O)c1ccc(C)c(F)c1 [Compound 612]
10,90.9%,CCn1c(Oc2cccc(N3CCN(C)CC3)c2)nnc1[C@@H](C)NS(=O)(=O)c1ccc(F)cc1C [Compound 613]
11,77.8%,CCn1c(Oc2cccc(N3CCN(C)CC3)c2)nnc1[C@@H](C)NS(=O)(=O)c1cc(Cl)ccc1F [Compound 614]
12,110%,CCn1c(Oc2cccc(N3CCN(C)CC3)c2)nnc1[C@@H](C)NS(=O)(=O)c1ccc(Br)c(F)c1 [Compound 615]
13,99.9%,CCn1c(Oc2cccc(N3CCN(C)CC3)c2)nnc1[C@@H](C)NS(=O)(=O)c1ccc(Br)cc1Cl [Compound 616]
14,77.5%,CCn1c(Oc2cccc(N3CCN(C)CC3)c2)nnc1[C@@H](C)NS(=O)(=O)c1c(Cl)cc(Br)cc1Cl [Compound 617]
15,65.4%,CCn1c(Oc2cccc(N3CCN(C)CC3)c2)nnc1[C@@H](C)NS(=O)(=O)CCCOc1ccc(OC)cc1 [Compound 618]
16,114%,CCn1c(Oc2cccc(N3CCN(C)CC3)c2)nnc1[C@@H](C)NS(=O)(=O)c1ccc(C)c(C)c1 [Compound 619]
17,88.4%,CCn1c(Oc2cccc(N3CCN(C)CC3)c2)nnc1[C@@H](C)NS(=O)(=O)c1cc(C)ccc1F [Compound 620]
18,95.4%,CCn1c(Oc2cccc(N3CCN(C)CC3)c2)nnc1[C@@H](C)NS(=O)(=O)c1cccc(Cl)c1F [Compound 621]
19,58.9%,CCn1c(Oc2cccc(N3CCN(C)CC3)c2)nnc1[C@@H](C)NS(=O)(=O)c1ccc(F)cc1C(F)(F)F [Compound 622]
20,61.1%,CCn1c(Oc2cccc(N3CCN(C)CC3)c2)nnc1[C@@H](C)NS(=O)(=O)c1ccccc1OC [Compound 626]
